According to patent publication US20240277689A1, “METHOD OF TREATING AN AUTOIMMUNE HEMATOLOGICAL DISORDER” (Novartis AG, priority 2021, published 2024):

What was measured:
AP activity (Wieslab) = test: First in human (FIH) studies: suppression of AP activity (Wieslab); type: in vivo
Method: In the FIH studies, there was rapid suppression of the AP activity (Wieslab) with approximately 80% or greater inhibition achieved at two hours post-dose for participants receiving single dose of 200 mg iptacopan. The suppression of the AP (80% or greater inhibition) was sustained over 14 days of dosing at 200 mg b.i.d. The exposure-response model developed with data from the FIH study with iptacopan in healthy volunteers predicts that a dose of about 200 mg b.i.d. would be needed to achieve >90% inhibition of the AP (Wieslab assay) in most participants. Preclinical studies supported acceptable safety margins for human exposure following 200 mg b.i.d. dosing.
Given the observed PK/PD profile in a first in human study in healthy volunteers, a 200 mg b.i.d dose of iptacopan is selected for this study.

[1] = tested on: complement alternative pathway; conditions: multiple in vitro and in vivo non-clinical mechanistic studies; cited from earlier work

CCO[C@H]1CCN(Cc2c(OC)cc(C)c3[nH]ccc23)[C@H](c2ccc(C(=O)O)cc2)C1 [iptacopan, 4-((2S,4S)-(4-ethoxy-1-((5-methoxy-7-methyl-1H-indol-4-yl)methyl)piperidin-2-yl))benzoic acid]
suppression of the AP (inhibition), sustained (AP activity (Wieslab); over 14 days of dosing at 200 mg b.i.d.): ≥ 80% | inhibition of AP activity (Wieslab) (AP activity (Wieslab); two hours post-dose, single dose of 200 mg, FIH participants): ≥ 80% | inhibition of the complement alternative pathway [1]: demonstrated inhibition of the complement alternative pathway
